The values below are quoted from earlier work in article PMC6920808, “Preclinical Evaluation of UDCA-Containing Oral Formulation in Mice for the Treatment of Wet Age-Related Macular Degeneration” (Pharmaceutics, 2019).

On the set-up of series [1]: method as in PMID 6479887, PMID 30319399. The settings on record: ref [17],[18].
In the next series the test system is laser-treated rat model. Also noted: method as in PMID 20565307. The settings on record: intraperitoneally injected, ref [4].
Another series relates to retina. Set-up: method as in earlier work. The following applies: intravitreally injected, dose higher than 5 μg of TUDCA (5 mg/mL), Balb/C mice, ref [33].

For `C[C@H](CCC(=O)O)[C@H]1CC[C@H]2[C@@H]3[C@@H](O)C[C@@H]4C[C@H](O)CC[C@]4(C)[C@H]3CC[C@]12C` [UDCA, 3α,7β-dihydroxy-5β-cholanoic acid], the pKa entry in series [1] is “around 5.0”. In addition, in the series with laser-treated rat model, the “CNV size and vascularity” value is recorded as “reduction”; the “early VEGF elevation in the retina” value is recorded as “effectively suppress”.
As for `C[C@H](CCC(=O)NCCS(=O)(=O)O)[C@H]1CC[C@H]2[C@@H]3[C@@H](O)C[C@@H]4C[C@H](O)CC[C@]4(C)[C@H]3CC[C@]12C` [TUDCA, tauroursodeoxycholic acid], the “A- and B-wave amplitudes in the ERG and outer nuclear layer thickness” value with retina was “reduced”. Moreover, in the series on laser-treated rat model, the “CNV size and vascularity” value was “reduction”; the “early VEGF elevation in the retina” value is “effectively suppress”.
